Laboratory results as given in patent US10286022B2, “Medicinal composition of extract of seed of emblica officinalis and method of preparing the same” (priority 2013, dated 2019).

Key:
[1] = test system: Triton WR 1339 induced dyslipidemia in Albino rats (Sprague Dawley strain); experiment: Hypolipidemic activity compared with other amla extracts, Triton WR 1339 model (Example 20); type: in vivo, rat
Protocol: Forty eight male Albino rats (Sprague Dawley strain) weighing approximate 250-300 gm were selected for the study. The animals were kept in the animal house maintained at temp 24±2° C., 65% relative humidity and 12 hr light/dark cycle. The rats were acclimatized for two weeks and during this period they had access to standard pellet diet and water ad libitum. After two weeks of acclimatization, all the rats were fasted overnight before injecting Triton WR 1339 (Tyloxapol) and administration of test extracts/standard. The animals were divided into eight groups. Following treatment was given to overnight fasted rats: • Group I: Normal control (vehicle only). • Group II: Triton WR 1339 (300 mg/kg, intraperitoneal). • Group III: Triton WR 1339 (300 mg/kg, intraperitoneal) followed by amla seed extract prepared as per example 1 (2.5 mg/kg, per oral). • Group IV: Triton WR 1339 (300 mg/kg, intraperitoneal) followed by amla extract prepared as per example 3 (40 mg/kg, per oral). • Group V: Triton WR 1339 (300 mg/kg, intraperitoneal) followed by amla extract prepared as per example 4 (40 mg/kg, per oral). • Group VI: Triton WR 1339 (300 mg/kg, intraperitoneal) followed by amla extract prepared as per example 5 (40 mg/kg, per oral). • Group VII: Triton WR 1339 (300 mg/kg, intraperitoneal) followed by amla extract prepared as per example 6 (40 mg/kg, per oral). • Group VIII: Triton WR 1339 (300 mg/kg, intraperitoneal) followed by atorvastatin (10 mg/kg, per oral).
(§1) The animals were deprived of food for next 24 hours but had free access to water ad libitum. After 24 hour of drug treatment 2 ml blood samples were collected from the retro orbital plexus. The blood was allowed to clot and then centrifuged at 3000 rpm for 10 min and the serum was carefully drawn and collected into separate tubes. The serum was analyzed for total cholesterol, triglycerides, high density lipoproteins (HDL), low density lipoproteins (LDL) and very low density lipoproteins (VLDL) levels using auto-analyzer.

[2] = test system: Triton WR 1339 induced dyslipidemia in Albino rats (Sprague Dawley strain); experiment: Screening of hypolipidemic activity, Triton WR 1339 induced dyslipidemia model (Example 18); type: in vivo, rat
Protocol: Twenty four male Albino rats (Sprague Dawley strain) weighing approximate 250-300 gm were selected for the study. The animals were kept in the animal house maintained at temp 24±2° C., 65% relative humidity and 12 hr light/dark cycle. The rats were acclimatized for two weeks and during this period they had access to standard pellet diet and water ad libitum. After two weeks of acclimatization, all the rats were fasted overnight before injecting Triton WR 1339 (Tyloxapol) and administration of test extracts/standard. The animals were divided into four groups Following treatment was given to overnight fasted rats: • Group I: Normal control (vehicle only). • Group II: Triton WR 1339 (300 mg/kg, intraperitoneal). • Group III: Triton WR 1339 (300 mg/kg, intraperitoneal) followed by amla seed extract prepare as per example 1 (10 mg/kg, per oral). • Group IV: Triton WR 1339 (300 mg/kg, intraperitoneal) followed by Atorvastatin (10 mg/kg, per oral).
as §1

cholesterol fed rabbits = experiment: Hypolipidemic activity in cholesterol fed rabbits (Example 23); type: in vivo, rabbit
Protocol: The amla seed extract as prepared in example 1 was evaluated for hypolipidemic activity in experimental rabbits. Male NZ white rabbits weighing 1.5-2.0 kg were used for the experiment. They were housed in a temperature-controlled room (25±2° C.) in clean stainless steel cages with ‘12 h light and 12 h dark’ cycles and fed with normal pellet diet and water ad libitum.
After the acclimatization period of 10 days, blood samples were collected from marginal ear vein of all the rabbits. The blood was allowed to clot and then centrifuged at 3000 rpm for 10 min and the serum was carefully drawn and collected into separate tubes. The serum was analyzed for total cholesterol, triglycerides, high density lipoproteins (HDL), low density lipoproteins (LDL) and very low density lipoproteins (VLDL) levels using auto-analyzer.
After taking baseline lipid profile the animals were divided into four groups having six animals in each group. Following treatment was given to the animals for the three months:
Blood samples were collected from all the rabbits after 3 months of treatment and serum was analyzed for lipid profile. After blood collection the animals were sacrificed after injecting pentobarbitone and aorta was dissected out, washed with saline and preserved in 10% formalin for histopathology. The sections were cut using microtome and stained with heamatoxylin & eosin dye and mounted on glass slides. The slides were observed under microscope and aortic intima media thickness (IMT) was measured by histomorphometry.

[3] = 24 h after Triton i.p. + 10 mg/kg p.o.
[4] = after 3 months cholesterol 100 mg/kg + 10 mg/kg

CC(C)c1c(C(=O)Nc2ccccc2)c(-c2ccccc2)c(-c2ccc(F)cc2)n1CC[C@@H](O)C[C@@H](O)CC(=O)O [Atorvastatin]
HDL After [1, 3]: 33.84 mg/dL
LDL After [1, 3]: 55.00 mg/dL
TC After [1, 3]: 132.58 mg/dL
TG After [1, 3]: 218.66 mg/dL
VLDL After [1, 3]: 43.73 mg/dL
HDL Before ([1]; baseline, 10 mg/kg p.o. group): 35.11 mg/dL
LDL Before ([1]; baseline, 10 mg/kg p.o. group): 52.43 mg/dL
TC Before ([1]; baseline, 10 mg/kg p.o. group): 97.33 mg/dL
TG Before ([1]; baseline, 10 mg/kg p.o. group): 48.99 mg/dL
VLDL Before ([1]; baseline, 10 mg/kg p.o. group): 9.79 mg/dL
effect on cholesterol and triglyceride level ([1]; other amla extracts 40 mg/kg vs seed extract 2.5 mg/kg, atorvastatin 10 mg/kg p.o.): effective in lowering the cholesterol as well as triglyceride levels
effect on cholesterol and triglyceride level ([2]; 10 mg/kg p.o.): effective in lowering the cholesterol as well as triglyceride level
HDL After [2, 3]: 32.37 mg/dL
LDL After [2, 3]: 77.61 mg/dL
TC After [2, 3]: 131.9 mg/dL
TG After [2, 3]: 109.67 mg/dL
VLDL After [2, 3]: 21.93 mg/dL
HDL Before ([2]; baseline, 10 mg/kg p.o. group): 29.13 mg/dL
LDL Before ([2]; baseline, 10 mg/kg p.o. group): 62.43 mg/dL
TC Before ([2]; baseline, 10 mg/kg p.o. group): 100.4 mg/dL
TG Before ([2]; baseline, 10 mg/kg p.o. group): 44.26 mg/dL
VLDL Before ([2]; baseline, 10 mg/kg p.o. group): 8.85 mg/dL
effect on total cholesterol and triglyceride level (cholesterol fed rabbits; 10 mg/kg, 3 months, compared to untreated control group): decreased the total cholesterol and triglyceride level significantly
HDL After (cholesterol fed rabbits; [4]): 20.37 mg/dL
LDL After (cholesterol fed rabbits; [4]): 82.8 mg/dL
TC After (cholesterol fed rabbits; [4]): 118.9 mg/dL
TG After (cholesterol fed rabbits; [4]): 78.67 mg/dL
VLDL After (cholesterol fed rabbits; [4]): 15.73 mg/dL
Aortic intima media thickness (cholesterol fed rabbits; after 3 months cholesterol 100 mg/kg + 10 mg/kg, histomorphometry): 112.36 μm
HDL Before (cholesterol fed rabbits; baseline, 10 mg/kg group): 14.15 mg/dL
LDL Before (cholesterol fed rabbits; baseline, 10 mg/kg group): 27.88 mg/dL
TC Before (cholesterol fed rabbits; baseline, 10 mg/kg group): 53.69 mg/dL
TG Before (cholesterol fed rabbits; baseline, 10 mg/kg group): 58.28 mg/dL
VLDL Before (cholesterol fed rabbits; baseline, 10 mg/kg group): 11.66 mg/dL
